Laboratory results reported in patent publication US12391737B2, “Soluble NPY2 receptor agonists” (Boehringer Ingelheim International GmbH, priority 2020, dated 2025).
*1 amine or outer side, *2 acyl side, *3 side chain or, on linkers, in order; H or OH if unused. Where a SMILES comes first, the peptide text is derived from it. Side-chain parts run from the residue outwards. The star is where a group is joined. C18 diacid = O=C(O)CCCCCCCCCCCCCCCCC(=O)*; γGlu = O=C(O)[C@H](CCC(=O)[*:2])N[*:1]; Isovaleryl = CC(C)CC(=O)*; Ahx = NCCCCCC(=O)O

Legend:
[1] = molecular target: T1, Human Neuropeptide Y2 Receptor (Homo sapiens, UniProt P49146); assay: Radioligand binding competition assay (RLB); conditions: Table 3, 125I-PYY(1-36) competition; read-out: Ki
T1 construct: purchased CHEMICON HTS066M
T1 sequence (P49146 1-381): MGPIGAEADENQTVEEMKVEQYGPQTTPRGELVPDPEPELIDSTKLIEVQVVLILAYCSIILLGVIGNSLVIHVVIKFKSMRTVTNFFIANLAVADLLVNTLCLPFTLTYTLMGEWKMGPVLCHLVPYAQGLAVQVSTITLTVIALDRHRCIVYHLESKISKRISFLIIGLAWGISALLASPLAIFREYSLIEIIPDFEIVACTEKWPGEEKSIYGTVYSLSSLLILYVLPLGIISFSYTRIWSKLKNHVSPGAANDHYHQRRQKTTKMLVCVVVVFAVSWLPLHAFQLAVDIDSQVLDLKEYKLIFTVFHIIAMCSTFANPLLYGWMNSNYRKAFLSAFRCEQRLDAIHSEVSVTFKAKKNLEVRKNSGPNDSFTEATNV
How it was run: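 Filtration competition binding on membranes from cells expressing the receptor, 0.5 μg protein/well, in 50 mM HEPES, 5 mM MgCl2, 1 mM CaCl2, pH 7.4, with 0.2% ovalbumin. Incubation ran 2 h at room temperature, followed by GF/C filtration and scintillation counting. IC50 came from nonlinear sigmoidal fits.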

Solubility determination = conditions: for Sol6: pH 6; for Sol7: pH 7
How it was run: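 Solubility is derived from the ratio of reversed-phase peak areas, filtered sample over a control dissolved at 1 mg/ml in 50% acetonitrile. Peptides are agitated for 2 hours at room temperature in 0.1 M sodium diphosphate at pH 6.4 or 7.0, aiming at 10 mg/ml.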

CC(C)CC(=O)N[C@@H](C)C(=O)N1CCC[C@H]1C(=O)N[C@@H](CCC(=O)O)C(=O)N[C@@H](CCCCNC(=O)CCCCCNC(=O)CC[C@H](NC(=O)CCCCCCCCCCCCCCCCC(=O)O)C(=O)O)C(=O)N1CCC[C@H]1C(=O)N[C@@H](CCC(=O)O)C(=O)N[C@@H](CCC(=O)O)C(=O)N1CCC[C@H]1C(=O)N[C@@H](C)C(=O)N[C@H](C(=O)N1CCC[C@H]1C(=O)N[C@@H](CCC(=O)O)C(=O)N[C@@H](CCC(=O)O)C(=O)N[C@@H](CC(C)C)C(=O)N[C@@H](CCC(N)=O)C(=O)N[C@@H](CCCNC(=N)N)C(=O)N[C@@H](Cc1ccc(O)cc1)C(=O)N[C@@H](Cc1ccc(O)cc1)C(=O)N[C@H](C(=O)N[C@@H](CO)C(=O)N[C@@H](CC(C)C)C(=O)N[C@@H](CCCNC(=N)N)C(=O)N[C@@H](Cc1c[nH]cn1)C(=O)N[C@@H](Cc1ccc(O)cc1)C(=O)N[C@@H](Cc1ccc(O)cc1)C(=O)N[C@@H](CC(N)=O)C(=O)N[C@@H](Cc1c[nH]c2ccccc12)C(=O)N[C@@H](CC(C)C)C(=O)N[C@H](C(=O)N[C@@H](CCCNC(=N)N)C(=O)N[C@@H](CCC(N)=O)C(=O)N[C@@H](CCCNC(=N)N)C(=O)N[C@@H](Cc1ccc(O)cc1)C(N)=O)[C@@H](C)O)C(C)C)[C@@H](C)O [Compound 42, N{alpha-4}-(3-methylbutanoyl)-N{epsilon-7}-(6-[(4S)-4-carboxy-4-(17-carboxyheptadecanamido)butanamido]hexanoyl)[4A,7K,9E,11P,13T,18Q,22V,28Y,30W,31L]-hPYY(4-36)]
Ki [1]: 1.98 nM
Sol6 (Solubility determination): 9.8 mg/mL
Sol7 (Solubility determination): 9.9 mg/mL

CC(C)CC(=O)N[C@@H](C)C(=O)N1CCC[C@H]1C(=O)N[C@@H](C)C(=O)N[C@@H](CCCCNC(=O)CCCCCNC(=O)CC[C@H](NC(=O)CCCCCCCCCCCCCCCCC(=O)O)C(=O)O)C(=O)N1CCC[C@H]1C(=O)N[C@@H](CCC(=O)O)C(=O)N[C@@H](C)C(=O)N[C@@H](C)C(=O)N[C@@H](C)C(=O)N[C@@H](CCC(=O)O)C(=O)N1CCC[C@H]1C(=O)N[C@@H](CCC(=O)O)C(=O)N[C@@H](CCC(=O)O)C(=O)N[C@@H](CC(C)C)C(=O)N[C@@H](CCC(N)=O)C(=O)N[C@@H](CCCNC(=N)N)C(=O)N[C@@H](Cc1ccc(O)cc1)C(=O)N[C@@H](Cc1ccc(O)cc1)C(=O)N[C@H](C(=O)N[C@@H](CO)C(=O)N[C@@H](CC(C)C)C(=O)N[C@@H](CCCNC(=N)N)C(=O)N[C@@H](Cc1c[nH]cn1)C(=O)N[C@@H](Cc1ccc(O)cc1)C(=O)N[C@@H](Cc1ccc(O)cc1)C(=O)N[C@@H](CC(N)=O)C(=O)N[C@@H](Cc1c[nH]c2ccccc12)C(=O)N[C@@H](CC(C)C)C(=O)N[C@H](C(=O)N[C@@H](CCCNC(=N)N)C(=O)N[C@@H](CCC(N)=O)C(=O)N[C@@H](CCCNC(=N)N)C(=O)N[C@@H](Cc1ccc(O)cc1)C(N)=O)[C@@H](C)O)C(C)C [Compound 43, N{alpha-4}-(3-methylbutanoyl)-N{epsilon-7}-(6-[(4S)-4-carboxy-4-(17-carboxyheptadecanamido)butanamido]hexanoyl)[4A,6A,7K,9E,10A,11A,13E,18Q,22V,28Y,30W,31L]-hPYY(4-36)] (Isovaleryl-APAK([Ahx-γGlu-C18 diacid])PEAAAEPEELQRYYVSLRHYYNWLTRQRY-NH2)
Ki [1]: 2.49 nM
Sol6 (Solubility determination): 0.0 mg/mL
Sol7 (Solubility determination): 0.0 mg/mL

CC(C)CC(=O)N[C@@H](C)C(=O)N1CCC[C@H]1C(=O)N[C@@H](CCC(=O)O)C(=O)N[C@@H](CCCCNC(=O)CCCCCNC(=O)CC[C@H](NC(=O)CCCCCCCCCCCCCCCCC(=O)O)C(=O)O)C(=O)N1CCC[C@H]1C(=O)N[C@@H](CCC(=O)O)C(=O)N[C@@H](CCC(=O)O)C(=O)N[C@@H](CC(=O)O)C(=O)N[C@@H](C)C(=O)N[C@H](C(=O)N1CCC[C@H]1C(=O)N[C@@H](CCC(=O)O)C(=O)N[C@@H](CCC(=O)O)C(=O)N[C@@H](CC(C)C)C(=O)N[C@@H](CCC(N)=O)C(=O)N[C@@H](CCCNC(=N)N)C(=O)N[C@@H](Cc1ccc(O)cc1)C(=O)N[C@@H](Cc1ccc(O)cc1)C(=O)N[C@H](C(=O)NCC(=O)N[C@@H](CC(C)C)C(=O)N[C@@H](CCCNC(=N)N)C(=O)N[C@@H](Cc1c[nH]cn1)C(=O)N[C@@H](Cc1ccc(O)cc1)C(=O)N[C@@H](Cc1ccc(O)cc1)C(=O)N[C@@H](CC(N)=O)C(=O)N[C@@H](Cc1c[nH]c2ccccc12)C(=O)N[C@@H](CC(C)C)C(=O)N[C@H](C(=O)N[C@@H](CCCNC(=N)N)C(=O)N[C@@H](CCC(N)=O)C(=O)N[C@@H](CCCNC(=N)N)C(=O)N[C@@H](Cc1ccc(O)cc1)C(N)=O)[C@@H](C)O)C(C)C)[C@@H](C)O [Compound 44, N{alpha-4}-(3-methylbutanoyl)-N{epsilon-7}-(6-[(4S)-4-carboxy-4-(17-carboxyheptadecanamido)butanamido]hexanoyl)[4A,7K,9E,13T,18Q,22V,23G,28Y,30W,31L]-hPYY(4-36)]
Ki [1]: 5.86 nM
Sol6 (Solubility determination): 9.7 mg/mL
Sol7 (Solubility determination): 10.0 mg/mL

CC[C@H](C)[C@H](NC(=O)[C@H](CCC(=O)O)NC(=O)[C@H](CCC(=O)O)NC(=O)[C@@H]1CCCN1C(=O)[C@H](CCCCNC(=O)CCCCCNC(=O)CC[C@H](NC(=O)CCCCCCCCCCCCCCCCC(=O)O)C(=O)O)NC(=O)[C@H](CCC(=O)O)NC(=O)[C@@H]1CCCN1C(=O)[C@H](C)NC(=O)CC(C)C)C(=O)N[C@@H](C)C(=O)N[C@H](C(=O)N1CCC[C@H]1C(=O)N[C@@H](CCC(=O)O)C(=O)N[C@@H](CCC(=O)O)C(=O)N[C@@H](CC(C)C)C(=O)N[C@@H](CCC(N)=O)C(=O)N[C@@H](CCCNC(=N)N)C(=O)N[C@@H](Cc1ccc(O)cc1)C(=O)N[C@@H](Cc1ccc(O)cc1)C(=O)N[C@H](C(=O)N[C@@H](CO)C(=O)N[C@@H](CC(C)C)C(=O)N[C@@H](CCCNC(=N)N)C(=O)N[C@@H](Cc1c[nH]cn1)C(=O)N[C@@H](Cc1ccc(O)cc1)C(=O)N[C@@H](Cc1ccc(O)cc1)C(=O)N[C@@H](CC(N)=O)C(=O)N[C@@H](Cc1c[nH]c2ccccc12)C(=O)N[C@@H](CC(C)C)C(=O)N[C@H](C(=O)N[C@@H](CCCNC(=N)N)C(=O)N[C@@H](CCC(N)=O)C(=O)N[C@@H](CCCNC(=N)N)C(=O)N[C@@H](Cc1ccc(O)cc1)C(N)=O)[C@@H](C)O)C(C)C)[C@@H](C)O [Compound 45, N{alpha-4}-(3-methylbutanoyl)-N{epsilon-7}-(6-[(4S)-4-carboxy-4-(17-carboxyheptadecanamido)butanamido]hexanoyl)-[4A,7K,9E,11I,13T,18Q,22V,28Y,30W,31L]-hPYY(4-36)]
Ki [1]: 6.17 nM
Sol6 (Solubility determination): >10.0 mg/mL
Sol7 (Solubility determination): >10.0 mg/mL

CC[C@H](C)[C@H](NC(=O)[C@H](Cc1ccc(O)cc1)NC(=O)[C@H](Cc1ccc(O)cc1)NC(=O)[C@H](CCCNC(=N)N)NC(=O)[C@H](CCC(N)=O)NC(=O)[C@H](CC(C)C)NC(=O)[C@H](CCC(=O)O)NC(=O)[C@H](CCC(=O)O)NC(=O)[C@@H]1CCCN1C(=O)[C@@H](NC(=O)[C@H](C)NC(=O)[C@H](C)NC(=O)[C@H](CCC(=O)O)NC(=O)[C@H](CCC(=O)O)NC(=O)[C@@H]1CCCN1C(=O)[C@H](CCCCNC(=O)CCCCCNC(=O)CC[C@H](NC(=O)CCCCCCCCCCCCCCCCC(=O)O)C(=O)O)NC(=O)[C@H](C)NC(=O)[C@@H]1CCCN1C(=O)[C@H](C)NC(=O)CC(C)C)[C@@H](C)O)C(=O)N[C@@H](CO)C(=O)N[C@@H](CC(C)C)C(=O)N[C@@H](CCCNC(=N)N)C(=O)N[C@@H](Cc1c[nH]cn1)C(=O)N[C@@H](Cc1ccc(O)cc1)C(=O)N[C@@H](Cc1ccc(O)cc1)C(=O)N[C@@H](CC(N)=O)C(=O)N[C@@H](Cc1c[nH]c2ccccc12)C(=O)N[C@@H](CC(C)C)C(=O)N[C@H](C(=O)N[C@@H](CCCNC(=N)N)C(=O)N[C@@H](CCC(N)=O)C(=O)N[C@@H](CCCNC(=N)N)C(=O)N[C@@H](Cc1ccc(O)cc1)C(N)=O)[C@@H](C)O [Compound 48, N{alpha-4}-(3-methylbutanoyl)-N{epsilon-7}-(6-[(4S)-4-carboxy-4-(17-carboxyheptadecanamido)butanamido]hexanoyl)-[4A,6A,7K,9E,11A,13T,18Q,22I,28Y,30W,31L]-hPYY(4-36)]
Ki [1]: 1.54 nM
Sol6 (Solubility determination): 0.0 mg/mL
Sol7 (Solubility determination): 0.3 mg/mL
